According to patent EP0067641A2, “Amino acids” (BEECHAM GROUP PLC, priority 1981, dated 1982):
Marks after values point to notes of the source that are not given here.

These compounds were tested on rats made hyperlipidaemic by diet (assay: Effects on serum lipids in vivo in rats made hyperlipidaemic by diet). Conditions: compound fed at 0.1% of the powdered diet (approximately 100 mg/kg/day), 7 days; HDL fraction by heparin-manganous chloride precipitation, four pooled samples per group; (-) lower, (+) higher than control.
Set-up: species or system Male Sprague-Dawley rats
Description: The compounds of the Examples above were tested for their effects on serum lipids in vivo using rats made hyperlipidaemic by diet*.
Male Sprague-Dawley rats, 80-100 g , were randomised into groups of 8 after 5 - 7 days of feeding on the diet. The compounds were fed to the rats at a concentration of * 0.1% of the powdered diet (ie approximately 100 mg/kg/ day), unless otherwise stated. The control groups were fed only the diet. At the end of the experiment, ie after 7 days, the rats were killed and their individual total serum cholesterol and triglyceride measured in mg/100 ml using a Technicon Autoanalyser. The high density lipoprotein (HDL)-cholesterol fraction, which was obtained from the serum by precipitation with heparin- manganous chloride, was measured on four 'pooled' samples from each group.
^* A semi-synthetic diet rich in sucrose and cholesterol.
In the case of `O=C(O)[C@H](Cc1ccccc1)NCc1cccc2ccccc12` [Example 3, N-(1-Naphthyl)methyl-L-phenylalanine], the “Percentage difference from Control Values in High Density lipoprotein (HDL) cholesterol” value (from here on “Percentage difference … (HDL) cholesterol”) is reported as “+41* %”.
With `O=C(O)C(Cc1ccc(Cl)cc1)NCc1ccc(Cl)s1` (racemic) [Example 1, N-[2-(5-chloro)thienyl]methyl-DL-(4-chlorophenyl) alanine] the “Percentage difference … (HDL) cholesterol” value was “+31* %”.
In the case of `O=C(O)C(Cc1ccc(Cl)cc1)NCc1ccco1` (racemic) [Example 2, N-(2-Furyl)methyl-DL-(4-chlorophenyl)-alanine], the “Percentage difference … (HDL) cholesterol” value is reported as “+84* %”.
With `O=C(O)[C@H](Cc1ccccc1)NCc1ccc2ccccc2c1` [Example 5, N-(2-Naphthyl)methyl-L-phenylalanine] the “Percentage difference … (HDL) cholesterol” value was “+30* %”.
`O=C(O)C(Cc1ccc(Cl)cc1)NCc1ccccn1` (racemic) [Example 4, N-(2-pyridyl)methyl-DL-(4-chlorophenyl) alanine] was tested, and the “Percentage difference … (HDL) cholesterol” value was “+44* %”.
`O=C(O)[C@H](Cc1ccccc1)NCc1ccco1` [Example 6, N-(2-Furyl)methyl-L-phenylalanine] was tested, and the “Percentage difference … (HDL) cholesterol” value was “+26* %”.

Same assay, conditions: compound fed at 0.1% of the powdered diet (approximately 100 mg/kg/day), 7 days; semi-synthetic diet rich in sucrose and cholesterol; (-) lower, (+) higher than control
`O=C(O)[C@H](Cc1ccccc1)NCc1cccc2ccccc12` [Example 3, N-(1-Naphthyl)methyl-L-phenylalanine] was tested, and the “Percentage difference from Control Values in Total Serum Cholesterol” value was “+62* %” and the “Percentage difference from Control Values in Total Serum Triglyceride” value was -63* %.
`O=C(O)C(Cc1ccc(Cl)cc1)NCc1ccc(Cl)s1` (racemic) [Example 1, N-[2-(5-chloro)thienyl]methyl-DL-(4-chlorophenyl) alanine] was tested, and the “Percentage difference from Control Values in Total Serum Cholesterol” value was “+16%” and the “Percentage difference from Control Values in Total Serum Triglyceride” value was -42* %.
`O=C(O)C(Cc1ccc(Cl)cc1)NCc1ccco1` (racemic) [Example 2, N-(2-Furyl)methyl-DL-(4-chlorophenyl)-alanine] was tested, and the “Percentage difference from Control Values in Total Serum Cholesterol” value was “+61* %” and the “Percentage difference from Control Values in Total Serum Triglyceride” value was -47* %.
For `O=C(O)[C@H](Cc1ccccc1)NCc1ccc2ccccc2c1` [Example 5, N-(2-Naphthyl)methyl-L-phenylalanine], the “Percentage difference from Control Values in Total Serum Cholesterol” value was “+17* %” and the “Percentage difference from Control Values in Total Serum Triglyceride” value was -57* %.
With `O=C(O)C(Cc1ccc(Cl)cc1)NCc1ccccn1` (racemic) [Example 4, N-(2-pyridyl)methyl-DL-(4-chlorophenyl) alanine] the “Percentage difference from Control Values in Total Serum Cholesterol” value was “+78* %” and the “Percentage difference from Control Values in Total Serum Triglyceride” value was -30* %.
With `O=C(O)[C@H](Cc1ccccc1)NCc1ccco1` [Example 6, N-(2-Furyl)methyl-L-phenylalanine] the “Percentage difference from Control Values in Total Serum Triglyceride” value was “+39%”.
